What was measured:
[1] = test system: fibroblast; assay: Inhibition of fibroblast, side-by-side comparison of substituents; type: cell-based; conditions: structural formula II, n=1
[2] = test system: Rat Pulmonary Fibroblasts; assay: MTT proliferation assay, rat pulmonary fibroblasts; type: cell-based
Protocol: Cell proliferation was measured by MTT assay. DMEM with 10% fetal serum was used as cell culture medium. The cells were prepared in suspension (1×10^5/ml), and 100 μL of the suspension was transferred to each well of a 96 wells plate. Once the cells were attached to the plastic, the culture was changed to serum free medium and incubated for another 24 hours. Then, the serum free medium was aspirated, and various concentrations of 1-(3′-fluorophenyl)-5-methyl-2(1H)-pyridone (AKF-PD) or 1-(3′-bromophenyl)-5-Methyl-2(1H)-Pyridone or PIRFENIDONE (PFD) in 10% serum medium were added into each well with 5 replicates for each concentration. The cells were stained with MTT (10 μL per well) at 24, or 48 hours post drug treatment. After 4 hrs of incubation, the medium with MTT was aspirated from each well. One hundred μL MTT solvent was added to each well for 15 min, and the dissolved MTT was measured with a plate reader at 570 nm.

[3] = test system: Kidney Fibroblast; assay: MTT proliferation assay, mouse kidney fibroblast; type: cell-based
Protocol: Cell proliferation was measured by MTT assay. DMEM with 10% fetal serum was used as cell culture medium. The cells were prepared in suspension (1×10^5/ml), and 100 μL of the suspension was transferred to each well of a 96 wells plate. Once the cells were attached to the plastic, the culture was changed to serum free medium and continued for another 24 hours. The serum free medium was aspirated, and various concentrations of 1-(3′-fluorophenyl)-5-methyl-2(1H)-pyridone (AKF-PD) 1-(3′-bromophenyl)-5-methyl-2(1H)-pyridone (AKF-BR) or PIRFENIDONE (PFD) in 10% serum medium were added into each well with 5 replicates for each concentration. The cells were stained with MTT (10 μL per well) at 24, 48, and 72 hours post drug treatment. After 4 hrs of incubation, the medium with MTT was aspirated from each well. One hundred μL MTT solvent was added to each well for 15 min. The dissolved MTT was then measured with a plate reader at 570 nm.

[4] = test system: ICR mice injected with bleomycin; assay: Bleomycin-induced mouse pulmonary fibrosis, histological score of lung tissue; type: in vivo; conditions: AKF-PD and PFD 500 mg/kg, captopril 12.5 mg/kg by gavage day 1 to 28, Szapiel's method
Protocol: Under regular care condition, 7-10 weeks old, male, institute of cancer research (ICR) mice, weight 28-39 g, were randomly grouped as normal control, disease, disease/AKF-PD, disease/PFD and disease Captopril group.
Control group was injected with normal saline once day from day 2 to 15 days. Disease, disease/AKF-PD, disease/PFD and disease/captopril groups were injected with bleomycin once day from day 2 to 15. Control and disease groups were given 0.5% CMC by gavage once a day from day 1 to day 28. 500 mg/kg of AKF-PD CMC suspension and PD CMC suspension and 12.5 mg/kg captopril in saline were administered to respective groups by gavage once day from day 1 to day 28. All animals were sacrificed on day 29 and their lungs were removed for pathological (HE staining) examination.
Histological scoring for the lung tissue was done according Szapiel's method.

[5] = test system: SD rat, Unilateral Ureteral Obstruction (UUO) model; assay: Rat UUO model of renal interstitial fibrosis, histological score (Example 8); type: in vivo; conditions: UUO rats; AKF-PD 500 mg/kg/d, Enalapril 10 mg/kg/d by gavage; 14 days post surgery; Radford's method
Protocol: Anti-fibrotic effect of AKF-PD was tested on a SD rat model for renal interstitial fibrosis induced by surgical ligation of single side ureter (Unilateral Ureteral Obstruction, UUO, model). Eight weeks old male SD rats (180 g˜220 g) were randomly divided into sham surgical group, disease model group, Enalapril (10 mg/kg/d) group and AKF-PD (500 mg/kg/d) group. […] The animals of the sham surgical group experienced the same surgical procedure except the ligation step. The respective drugs were administrated by gavage to rats in the groups of Enalapril and AKF-PD from one day prior to the procedure to 14 days post surgical procedure. Normal saline was administrated in a similar fashion to the rats in the groups of disease model and sham surgical. The animals were sacrificed 14 days after surgical procedure and their left kidney were removed for pathological (HE staining) examination. Histological scoring for interstitial compartment was done according to Radford's method (Radford et al., Predicting renal outcome in IgA nephropathy. J. Am. Soc. Nephrol. 8: 199-207(1997)).

[6] = test system: Kun Ming (KM) mice infected with Schistosoma miracidium; assay: Schistosomial liver fibrosis in Kun Ming mice, egg granuloma area and immunohistology; type: in vivo; conditions: all after Pyquiton 650 mg/kg 4 days, AKF-PD 500 mg/kg daily gavage, γ-interferon 50,000 unit daily i.m., 8 weeks
From the text: Kun Ming (KM) mice were infected with Schistosoma miracidium to induce schistosomial liver fibrosis. […] Ten Schistosoma miracidium were placed on shaved abdominal skin of each mouse for infection. […] Five hundred mg/kg AKF-PD were given daily by gavage to the disinfected mice of infected/AKF-PD group. The disinfected mice were given (i.m.) 50,000 unit γ-interferon daily. […] Drug or normal saline treatment was continued for 8 weeks. All mice were sacrificed one week after discontinue of drug treatment, and the left lobe of liver from each mouse was taken for pathological examination. Examination of HE-stained slices of liver tissue were carried out as follows. In general, after 16 weeks of Schistosoma miracidia infection, the area of schistosomo egg granuloma would directly correlate to the severity of liver fibrosis. Therefore, the area of schistosomo egg granuloma was measured using a high-resolution, color pathology graphic analyzer (HPIAS-1000). The sum of area of 5 granuloma with abundant eggs and the sum of area of 5 granuloma with few eggs were measured for each slice.

## Cc1ccc(=O)n(-c2cccc(I)c2)c1 [1-(3′-iodophenyl)-5-methyl-2(1H)-pyridone]
[1]
  activity inhibiting fibroblast: activities inhibiting fibroblast

## Cc1cccc(-n2cc(C)ccc2=O)c1 [5-methyl-1-(3′-methylphenyl)-2(1H)-pyridone]
[1]
  activity inhibiting fibroblast: activities inhibiting fibroblast

## Cc1ccc(=O)n(-c2cccc(Br)c2)c1 [AKF-BR, 1-(3′-bromophenyl)-5-methyl-2(1H)-pyridone]
[2]
  suppression of proliferation of rat pulmonary fibroblasts: could suppress proliferation of rat pulmonary fibroblasts
[2]; 100 μg/ml, 24 h
  Optical Density at 570 nm: 0.1654 ± 0.0143
[2]; 100 μg/ml, 48 h
  Optical Density at 570 nm: 0.1475 ± 0.0211
[2]; 500 μg/ml, 24 h
  Optical Density at 570 nm: 0.1342 ± 0.0237
[2]; 500 μg/ml, 48 h
  Optical Density at 570 nm: 0.1292 ± 0.0178
[2]; 1000 μg/ml, 24 h
  Optical Density at 570 nm: 0.1204 ± 0.0176
[2]; 1000 μg/ml, 48 h
  Optical Density at 570 nm: 0.1201 ± 0.0342
[2]; rat pulmonary fibroblasts
  order of inhibitory effect: AKF-PD>AKF-BR>pirfenidone
[3]
  inhibition of proliferation of kidney fibroblast: capable of inhibiting the proliferation of kidney fibroblast
[3]; 100 μg/ml, 24 h
  Optical Density at 570 nm: 0.5937 ± 0.0307
[3]; 100 μg/ml, 48 h
  Optical Density at 570 nm: 0.5811 ± 0.0161
[3]; 100 μg/ml, 72 h
  Optical Density at 570 nm: 0.5363 ± 0.0158
[3]; 500 μg/ml, 24 h
  Optical Density at 570 nm: 0.5895 ± 0.0253
[3]; 500 μg/ml, 48 h
  Optical Density at 570 nm: 0.5418 ± 0.0221
[3]; 500 μg/ml, 72 h
  Optical Density at 570 nm: 0.4731 ± 0.0249
[3]; 1000 μg/ml, 24 h
  Optical Density at 570 nm: 0.5723 ± 0.0254
[3]; 1000 μg/ml, 48 h
  Optical Density at 570 nm: 0.5192 ± 0.0178
[3]; 1000 μg/ml, 72 h
  Optical Density at 570 nm: 0.4161 ± 0.0249
[3]; kidney fibroblast
  order of inhibitory effect: AKF-PD>AKF-BR>pirfenidone
[1]
  activity inhibiting fibroblast: activities inhibiting fibroblast

## C[C@H](CS)C(=O)N1CCC[C@H]1C(=O)O [Captopril]
[4]
  Histological Score for Lung Tissue, Mean: 2.7143

## CCOC(=O)[C@H](CCc1ccccc1)N[C@@H](C)C(=O)N1CCC[C@H]1C(=O)O [Enalapril, reference compound]
[5]
  Histological Score for Interstitial Compartment: 9.21 ± 0.64

B1: γ-interferon: γ-interferon given i.m. 50,000 unit daily to disinfected mice (protein, UniProt P01580 23-155, looked up)
Interferon gamma: HGTVIESLESLNNYFNSSGIDVEEKSLFLDIWRNWQKDGDMKILQSQIISFYLRLFEVLKDNQAISNNISVIESHLITTFFSNSKAKKDAFMSIAKFEVNNPQVQRQAFNELIRVVHQLLPESSLRKRKRSRC
[6]; granuloma with abundant eggs
  Schistosomo Egg Granuloma Area, Mean: 83706.79 μm^2
[6]; granuloma with few eggs
  Schistosomo Egg Granuloma Area, Mean: 32407.14 μm^2

Source: patent US20090005424A9, “Composition and Method for Treating Fibrotic Diseases” (priority 2005, published 2009)
